Results reported in patent publication US11426375B2, “Substituted bisphenyl butanoic ester derivatives as NEP inhibitors” (NOVARTIS AG, priority 2019, dated 2022).

Test system: DSS (Dahl Salt Sensitive) rats
Test: In vivo efficacy study on blood pressure in DSS rats (telemetry; systolic and diastolic pressure)
Conditions: for Systolic blood pressure, mean: Compound I-1 50 mg/kg, alone or combined, QD PO
Excerpt: An in vivo study ascertains the effects on blood pressure in DSS (Dahl Salt Sensitive) rats. The DSS hypertensive rat model is a model of hypertension that is sensitive to dietary salt (NaCl), see for example Rapp (1982) Hypertension 4:753-763 and Hegde et al. BMC Pharmacology 2011, 11 (Suppl 1):P33. Under pentobarbital sodium anesthesia, a DSI (Data Sciences International, St. Paul, Minn.) telemetric probe is implanted. The transducer is inserted into abdominal aorta, and the transmitter is implanted into abdominal cavity. During postoperative recovery period, close observation is performed. Analgesics (Buprenorphine, 0.1-0.5 mg/kg, once per day for 1 day) and preventive antibiotics (Cephradine, 10˜15 mg/kg, ip., once per day for 3 days) are administered on a daily basis. Before the treatment period, all animals are fed with 8% high salt food for about 2 weeks. Test compound is formulated in 0.5% HPC and administered by oral gavage. Five groups of animals are treated as follows: 1. Vehicle, 0.5% HPC, QD, PO, N=5 2. Valsartan, 30 mg/kg, QD, PO, N=5 3. Compound I-1, 50 mg/kg, QD, PO, N=6 4. Compound I-1, 15 mg/kg+Valsartan, 30 mg/kg, QD, PO, N=5 5. Compound I-1, 50 mg/kg+Valsartan, 30 mg/kg, QD, PO, N=5 N is the number of animals. The mean arterial pressure, systolic pressure, diastolic pressure and heart rate after administration for each animal are measured. Interim results obtained before full study completion are shown in Tables 18 and 19 (full cohort of animals beyond day 7 were reduced due to some loss). Mean measurements of the systolic (Table 18) and diastolic (Table 19) blood pressures, for the baseline day prior to first treatment and for treatment days 1 and 7 only, in each treatment group, are shown. Measurements obtained every other hour only are shown.

## CCCCC(=O)N(Cc1ccc(-c2ccccc2-c2nnn[nH]2)cc1)[C@H](C(=O)O)C(C)C [Valsartan, valsartan]
Baseline day prior to first treatment, Hour 1, groups Valsartan 30 mg/kg
  Systolic blood pressure, mean: 157.31
Baseline day prior to first treatment, Hour 3, groups Valsartan 30 mg/kg
  Systolic blood pressure, mean: 154.77
Baseline day prior to first treatment, Hour 5, groups Valsartan 30 mg/kg
  Systolic blood pressure, mean: 151.17
Baseline day prior to first treatment, Hour 7, groups Valsartan 30 mg/kg
  Systolic blood pressure, mean: 154.26
Baseline day prior to first treatment, Hour 9, groups Valsartan 30 mg/kg
  Systolic blood pressure, mean: 160.88
Baseline day prior to first treatment, Hour 11, groups Valsartan 30 mg/kg
  Systolic blood pressure, mean: 163.83
Baseline day prior to first treatment, Hour 13, groups Valsartan 30 mg/kg
  Systolic blood pressure, mean: 164.35
Baseline day prior to first treatment, Hour 15, groups Valsartan 30 mg/kg
  Systolic blood pressure, mean: 163.94
Baseline day prior to first treatment, Hour 17, groups Valsartan 30 mg/kg
  Systolic blood pressure, mean: 164.12
Baseline day prior to first treatment, Hour 19, groups Valsartan 30 mg/kg
  Systolic blood pressure, mean: 166.66
Baseline day prior to first treatment, Hour 21, groups Valsartan 30 mg/kg
  Systolic blood pressure, mean: 166.05
Baseline day prior to first treatment, Hour 23, groups Valsartan 30 mg/kg
  Systolic blood pressure, mean: 162.95
DSS rats, as compared to animals treated with vehicle alone, interim results
  effect on blood pressure: trend for lower blood pressure
Dosing day 1, Hour 1, Valsartan 30 mg/kg
  Systolic blood pressure, mean: 159.22
Dosing day 1, Hour 3, Valsartan 30 mg/kg
  Systolic blood pressure, mean: 149.24
Dosing day 1, Hour 5, Valsartan 30 mg/kg
  Systolic blood pressure, mean: 152.75
Dosing day 1, Hour 7, Valsartan 30 mg/kg
  Systolic blood pressure, mean: 160.54
Dosing day 1, Hour 9, Valsartan 30 mg/kg
  Systolic blood pressure, mean: 165.09
Dosing day 1, Hour 11, Valsartan 30 mg/kg
  Systolic blood pressure, mean: 166.16
Dosing day 1, Hour 13, Valsartan 30 mg/kg
  Systolic blood pressure, mean: 162.84
Dosing day 1, Hour 15, Valsartan 30 mg/kg
  Systolic blood pressure, mean: 162.88
Dosing day 1, Hour 17, Valsartan 30 mg/kg
  Systolic blood pressure, mean: 169.80
Dosing day 1, Hour 19, Valsartan 30 mg/kg
  Systolic blood pressure, mean: 162.27
Dosing day 1, Hour 21, Valsartan 30 mg/kg
  Systolic blood pressure, mean: 163.01
Dosing day 1, Hour 23, Valsartan 30 mg/kg
  Systolic blood pressure, mean: 155.05
Dosing day 7, Hour 1, Valsartan 30 mg/kg
  Systolic blood pressure, mean: 165.60
Dosing day 7, Hour 3, Valsartan 30 mg/kg
  Systolic blood pressure, mean: 143.04
Dosing day 7, Hour 5, Valsartan 30 mg/kg
  Systolic blood pressure, mean: 142.52
Dosing day 7, Hour 7, Valsartan 30 mg/kg
  Systolic blood pressure, mean: 153.17
Dosing day 7, Hour 9, Valsartan 30 mg/kg
  Systolic blood pressure, mean: 170.26
Dosing day 7, Hour 11, Valsartan 30 mg/kg
  Systolic blood pressure, mean: 173.95
Dosing day 7, Hour 13, Valsartan 30 mg/kg
  Systolic blood pressure, mean: 175.24
Dosing day 7, Hour 15, Valsartan 30 mg/kg
  Systolic blood pressure, mean: 177.02
Dosing day 7, Hour 17, Valsartan 30 mg/kg
  Systolic blood pressure, mean: 176.02
Dosing day 7, Hour 19, Valsartan 30 mg/kg
  Systolic blood pressure, mean: 176.83
Dosing day 7, Hour 21, Valsartan 30 mg/kg
  Systolic blood pressure, mean: 164.22
Dosing day 7, Hour 23, Valsartan 30 mg/kg
  Systolic blood pressure, mean: 163.41
Valsartan 30 mg/kg, Baseline day, Hour 1
  Diastolic blood pressure, Mean: 106.03
Valsartan 30 mg/kg, Baseline day, Hour 3
  Diastolic blood pressure, Mean: 102.82
Valsartan 30 mg/kg, Baseline day, Hour 5
  Diastolic blood pressure, Mean: 100.19
Valsartan 30 mg/kg, Baseline day, Hour 7
  Diastolic blood pressure, Mean: 103.02
Valsartan 30 mg/kg, Baseline day, Hour 9
  Diastolic blood pressure, Mean: 110.48
Valsartan 30 mg/kg, Baseline day, Hour 11
  Diastolic blood pressure, Mean: 114.29
Valsartan 30 mg/kg, Baseline day, Hour 13
  Diastolic blood pressure, Mean: 115.22
Valsartan 30 mg/kg, Baseline day, Hour 15
  Diastolic blood pressure, Mean: 113.98
Valsartan 30 mg/kg, Baseline day, Hour 17
  Diastolic blood pressure, Mean: 114.14
Valsartan 30 mg/kg, Baseline day, Hour 19
  Diastolic blood pressure, Mean: 116.35
Valsartan 30 mg/kg, Baseline day, Hour 21
  Diastolic blood pressure, Mean: 116.78
Valsartan 30 mg/kg, Baseline day, Hour 23
  Diastolic blood pressure, Mean: 111.79
Valsartan 30 mg/kg, Dosing day 1, Hour 1
  Diastolic blood pressure, Mean: 107.73
Valsartan 30 mg/kg, Dosing day 1, Hour 3
  Diastolic blood pressure, Mean: 101.25
Valsartan 30 mg/kg, Dosing day 1, Hour 5
  Diastolic blood pressure, Mean: 98.63
Valsartan 30 mg/kg, Dosing day 1, Hour 7
  Diastolic blood pressure, Mean: 100.29
Valsartan 30 mg/kg, Dosing day 1, Hour 9
  Diastolic blood pressure, Mean: 109.35
Valsartan 30 mg/kg, Dosing day 1, Hour 11
  Diastolic blood pressure, Mean: 115.04
Valsartan 30 mg/kg, Dosing day 1, Hour 13
  Diastolic blood pressure, Mean: 116.06
Valsartan 30 mg/kg, Dosing day 1, Hour 15
  Diastolic blood pressure, Mean: 113.61
Valsartan 30 mg/kg, Dosing day 1, Hour 17
  Diastolic blood pressure, Mean: 112.82
Valsartan 30 mg/kg, Dosing day 1, Hour 19
  Diastolic blood pressure, Mean: 119.69
Valsartan 30 mg/kg, Dosing day 1, Hour 21
  Diastolic blood pressure, Mean: 112.65
Valsartan 30 mg/kg, Dosing day 1, Hour 23
  Diastolic blood pressure, Mean: 112.26
Valsartan 30 mg/kg, Dosing day 7, Hour 1
  Diastolic blood pressure, Mean: 113.86
Valsartan 30 mg/kg, Dosing day 7, Hour 3
  Diastolic blood pressure, Mean: 94.17
Valsartan 30 mg/kg, Dosing day 7, Hour 5
  Diastolic blood pressure, Mean: 93.33
Valsartan 30 mg/kg, Dosing day 7, Hour 7
  Diastolic blood pressure, Mean: 102.69
Valsartan 30 mg/kg, Dosing day 7, Hour 9
  Diastolic blood pressure, Mean: 117.65
Valsartan 30 mg/kg, Dosing day 7, Hour 11
  Diastolic blood pressure, Mean: 123.73
Valsartan 30 mg/kg, Dosing day 7, Hour 13
  Diastolic blood pressure, Mean: 125.63
Valsartan 30 mg/kg, Dosing day 7, Hour 15
  Diastolic blood pressure, Mean: 126.20
Valsartan 30 mg/kg, Dosing day 7, Hour 17
  Diastolic blood pressure, Mean: 124.23
Valsartan 30 mg/kg, Dosing day 7, Hour 19
  Diastolic blood pressure, Mean: 127.67
Valsartan 30 mg/kg, Dosing day 7, Hour 21
  Diastolic blood pressure, Mean: 112.77
Valsartan 30 mg/kg, Dosing day 7, Hour 23
  Diastolic blood pressure, Mean: 112.12
